1 molecule from doi:10.1101/423061v1, “Comparative analysis of PknB inhibitors for reactivity and toxicity” (biorxiv, 2018) can be followed below.

The target of this assay is PknB (Mycobacterium tuberculosis, UniProt P9WI81). The assay is described as follows: ATP Glo kinase assay, GarA as protein substrate. It is filed as biochemical.

pIC50: −log10 of the molar value.

PknB, sequence (P9WI81 1-331 limits assumed): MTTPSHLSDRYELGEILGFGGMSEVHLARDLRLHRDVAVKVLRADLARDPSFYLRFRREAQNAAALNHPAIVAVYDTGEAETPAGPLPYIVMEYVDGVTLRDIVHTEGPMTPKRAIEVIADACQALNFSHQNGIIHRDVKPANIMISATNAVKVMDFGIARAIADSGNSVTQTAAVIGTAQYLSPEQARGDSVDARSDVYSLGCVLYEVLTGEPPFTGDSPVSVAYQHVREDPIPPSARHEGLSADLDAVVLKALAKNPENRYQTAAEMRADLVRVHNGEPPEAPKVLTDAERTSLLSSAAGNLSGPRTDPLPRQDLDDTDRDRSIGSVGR

With `COC(=O)/C=C/C(=O)c1ccc(OC)cc1` [YH-8, trans-Methyl-4-(4-methoxyphneyl)-4-oxobut-2-enoate], the pIC50 is 5.18.

For orientation: pIC50 means the negative decadic logarithm of the IC50, by convention in mol/L. High values mean a low IC50, low ones a high IC50.
